The values below come from publication PMC10799292, “The Role of β-Defensin 1 Against Porphyromonas gingivalis Lipopolysaccharide-Mediated Inflammation in the THP-1 Cell Line” (Cureus, 2023).

For data set [1] the following is noted: directly interacting with LPS; cited from earlier work. The text has this:
(§1) One of the primary virulence factors of periodontitis, Pg-LPS, targets TLR4, which activates the NF-kB signaling pathway and triggers the secretion of inflammatory cytokines such as TNFα, IL-6, and chemokines, recruiting monocytes/macrophages to the site of infection. […] Cecropin A, a novel 37-residue cecropin-like antimicrobial ...

In another data set the test system is endothelial cells. Particulars: cited from earlier work.
Source text: as §1

A further data set has as its system RAW264.7 cells. Particulars: stimulated with LPS; cited from earlier work.
Source text: as §1

Data set [2] relates to THP-1 differentiated macrophage cell line. Kind of data set: Cytotoxicity evaluation of Pg-LPS by MTT method. Conditions: 24 h, 0.25-4 µg/mL. The class given is cell-based, human. How it is done:
The THP-1 cell line was cultured in DMEM and supplemented with 10% FBS, sodium bicarbonate, L-glutamine, and an antibiotic solution containing penicillin (100 U/mL), amphotericin B (2.5 µg/mL), and streptomycin (100 µg/mL). The cells were maintained in a 5% humidified CO2 incubator (NBS Eppendorf, Germany) at 37°C. To induce differentiation into macrophages, the THP-1 cell line was treated with 25 ng/mL phorbol 12-myristate 13-acetate (PMA) (cat. 91585, Sigma-Aldrich, USA) and incubated for 48 hours. Following incubation, the cells were seeded in a 96-well culture plate at a density of 5x10^4 cells/well and incubated for 24 hours in a humidified 5% CO2 incubator at 37°C.
After incubation of 24 hours, triplicate additions of Pg-LPS in various concentrations (0.25 µg, 0.5 µg, 1 µg, 2 µg, and 4 µg/mL) were done appropriately. […] The inhibitory concentration (IC50) value of Pg-LPS was determined by the ED50 software.
Inverted phase contrast microscopy (IPCM) using an Olympus CKX41 microscope (Olympus, Japan) equipped with an Optika Pro5 CCD camera (Optika, Italy) was utilized to directly observe the cells. Cell viability was determined using the MTT (3-(4,5-Dimethylthiazol-2-yl)-2,5-diphenyltetrazolium bromide) assay (Sigma, M-5655). […] The absorbance of this colored solution can be quantified by measuring at approximately 570 nm using a spectrophotometer. […]

In data set [3] the test system is THP-1 cells. In words: Intracellular ROS generation, DCFDA assay. The class given is cell-based, human. Conditions: Pg-LPS 1 µg/mL alone; DCFDA 30 min, ex 470 nm, em 635 nm; untreated control 2379. How it is done:
Untreated control and Pg-LPS treated wells were also maintained. The cells were washed with PBS, and 50 µl of Dichlorodihydrofluorescein diacetate (DCFDA) was added, followed by incubation for 30 minutes. After incubation, excess dye was removed with PBS, and fluorescence was observed using a fluorescent microscope (Olympus CKX41 with Optika Pro5 CCD camera) and quantified with a fluorimeter at 470 nm excitation and emission at […] (Qubit 3.0, Life Technologies, USA), displaying the results in arbitrary units (AU).
The effect of β-defensin 1 on ROS generation in THP-1 cells stimulated with Pg-LPS was studied. DCFDA, a fluorogenic dye, measures hydroxyl, peroxyl, and other ROS activities within the cell. After entering the cell, DCFDA is deacetylated by cellular esterases into a non-fluorescent compound. This nonfluorescent chemical is then oxidized by ROS into […] (DCF), which, upon excitation with a blue filter, emits green fluorescence. When THP-1 cells were stimulated with Pg-LPS, there was a considerable increase in fluorescence, which decreased upon treatment with β-defensin 1, as shown in Figure 7 and Table 2.

Data set [4] concerns THP-1 cells. Kind of data set: Cell cycle distribution by flow cytometry. The class given is cell-based, human. Conditions: Pg-LPS alone, compared to untreated control cells. Here is the method: Untreated control and Pg-LPS stimulated cells were also maintained. The MUSE Cell Cycle Kit was added, and the manufacturer's instructions were followed.
A general note: A flow cytometer gives signals particle by particle.

Data set [5] deals with THP-1 cells. Kind of data set: Apoptosis by flow cytometry (Annexin V & Dead Cell). Conditions: Pg-LPS 1 µg/mL alone. The class given is cell-based, human. How it is done: Untreated control and Pg-LPS treated wells were also maintained. To the tubes, 100 μL of the Muse™ Annexin V & Dead Cell Reagents were added separately. The tubes were completely mixed by pipetting up and down or spinning at a medium speed for three to five seconds, followed by 20 minutes of incubation in the dark at room temperature. The cells were examined with a Flow Cytometer, gated against untreated control cells, and evaluated for apoptosis with the Muse FCS 3.0 software.
The Muse Annexin V & Dead Cell Kit is a method to analyze cells in various stages of apoptosis, where fluorescently labeled Annexin V binds to phosphatidylserine (PS), which translocates to the outer surface of the cell membrane upon the onset of apoptosis. 7-AAD is excluded from live and healthy cells and permeates late-stage apoptotic and dead cells. […] The result is depicted in Figure 9.

A further data set relates to phagocytosis. Particulars: via its effect on the cytoskeletal network; cited from earlier work. The text has this: Two important functions of macrophages are to eliminate pathogens through phagocytosis and apoptosis of inflammatory cells and their subsequent clearance (efferocytosis). The present study analyzed the role of AMP, β-defensin 1, in Pg-LPS-stimulated THP-1 differentiated macrophage cells.

No end group written: not given here.

For the substance cathelicidin, the LPS-neutralizing effect entry in data set [1] is reported as “potent LPS-neutralizing effect”. In addition, the LPS-induced apoptosis entry in the data set on endothelial cells is reported as “reducing LPS-induced apoptosis in endothelial cells”.
As for “Cecropin A: a novel 37-residue cecropin-like antimicrobial peptide isolated from a cecropia moth (KWKLFKKIEKVGQNIRDGIIKAGPAVAVVGQATQIAK; ends and bridges not checked; UniProt P01507 27-63, looked up)”, the anti-inflammatory activities entry in the data set with RAW264.7 cells is listed as “showed anti-inflammatory activities”.
Turning to “Porphyromonas gingivalis lipopolysaccharide [Pg-LPS]”, the “cytotoxicity (in words)” value in data set [2] is reported as “dose-dependent cytotoxicity”. In addition, in the data set on THP-1 cells [3], the “ROS generation, Fluorescence intensity” value is 10743.55 AU. Further, in the data set on THP-1 cells [4], the “G0/G1 phase of the cell cycle (in words)” value is listed as “increase in the G0/G1 phase of the cell cycle”. Further, the live cells in the data set with THP-1 cells [5] (untreated control 87.25%) is 74.40%. Moreover, the “necrotic effect / Dead” value with THP-1 cells [5] (untreated control Dead 3.65 %) is listed as 22.85%. The effect on phagocytosis result in the data set with phagocytosis is “suppresses phagocytosis”.
